Publication PMC5976250 (The Biochemical journal, 2017)

How the values were obtained:
[1] = test system: electrical uncoupling (gap junctions), amphibian embryonic cells, crayfish axons; details: cited from earlier work; for effect on uncoupling: Xenopus embryonic cells, ref [73], crayfish axons, ref [74],[75]
CaM [2] = details: α-family; ref [34],[49]; cited from earlier work
[3] = test system: full-length Cx45 (mCx45-Rluc) interaction with Venus–CaM; experiment: BRET assay of CaM–Cx45 interaction in live HEK293 cells; assay type: cell-based, mouse (Cx45); rat (CaM); details: 50 μM BAPTA-AM
CaM [4] = target: T1, CaM (Rattus norvegicus, UniProt P0DP29); details: earlier connexin peptide studies; ref [49]; cited from earlier work
CaM [5] = target: T1, CaM; details: complex formation; ref [49]; listed as Cx50-derived peptide; cited from earlier work

CN1CCN(CCCN2c3ccccc3Sc3ccc(C(F)(F)F)cc32)CC1 [trifluoperazine (TFP), trifluoperazine]
effect on electrical uncoupling of amphibian embryonic cells ([1]; ref [72]): protected amphibian embryonic cells from electrical uncoupling

Cx44p132–153: α-family connexin Cx44 peptide
binding mode to CaM (literature) (CaM [2]): compact form

Clc1ccc(C(c2ccc(Cl)cc2)n2cc[n+](CC(OCc3ccc(Cl)cc3Cl)c3ccc(Cl)cc3Cl)c2)cc1 (centres unmarked) [calmidazolium]
effect on uncoupling [1]: prevent uncoupling

CC(=O)OCOC(=O)CN(CC(=O)OCOC(C)=O)c1ccccc1OCCOc1ccccc1N(CC(=O)OCOC(C)=O)CC(=O)OCOC(C)=O [BAPTA-AM]
intracellular Ca2+ after treatment [3]: ~ 0.27 nM
BRET signal (ratio 525/460 nm) after treatment ([3]; 20 min): ~ 0.03

Cx43p136–158: α-family connexin Cx43 peptide
chemical shift change pattern of CaM (literature) (CaM [4]): localized change
binding mode to CaM (literature) (CaM [2]): compact form

Cx50p141–166: α-family connexin Cx50 peptide (FRLEGTLLRTYICHIIFKTLFEVGFI; UniProt P48165 141-166, looked up, fragment)
decrease in hydrodynamic radius of CaM (CaM [5]): decreased significantly
chemical shift change pattern of CaM (literature) (CaM [4]): localized change
binding mode to CaM (literature) (CaM [2]): embraced compact form

Cl.NCCCCCCNS(=O)(=O)c1cccc2c(Cl)cccc12 [W7, N-(6-aminohexyl)-5-chloro-1-naphthalenesulfonamide hydrochloride]
effect on uncoupling [1]: prevent uncoupling
